These molecules were tested against GST-Bcl-2 (Homo sapiens (Human), UniProt P10415) (assay: Time Resolved-Fluorescence Resonance Energy Transfer (TR-FRET) Bcl-2 binding assay). Conditions: GST-Bcl-2 1 nM, F-Bak peptide probe 100 nM, Tb-anti-GST antibody 1 nM; Ki by Wang's equation.
Sequence of GST-Bcl-2 (P10415 whole entry): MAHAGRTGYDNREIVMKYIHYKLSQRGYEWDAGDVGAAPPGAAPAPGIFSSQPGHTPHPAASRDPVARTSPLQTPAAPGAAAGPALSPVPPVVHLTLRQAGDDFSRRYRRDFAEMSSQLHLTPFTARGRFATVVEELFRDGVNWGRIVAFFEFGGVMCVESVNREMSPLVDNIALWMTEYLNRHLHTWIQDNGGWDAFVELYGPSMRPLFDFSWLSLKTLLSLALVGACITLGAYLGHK
In short: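 Competition TR-FRET: GST-Bcl-2 with fluorescent Bak peptide probe and Tb-anti-GST antibody, compounds serially diluted from 50 μM (2× start, 10% DMSO).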
For `CN1CCC(Nc2ccc(S(=O)(=O)NC(=O)c3ccc(N4CCN(CC5=C(c6ccc(Cl)cc6)CC(C)(C)CC5)CC4)cc3Oc3cc(Cl)ccc3Cl)cc2[N+](=O)[O-])CC1` [Example 60, 4-(4-((2-(4-chlorophenyl)-4,4-dimethylcyclohex-1-en-1-yl)methyl)piperazin-1-yl)-2-(2,5-dichlorophenoxy)-N-((4-((1-methylpiperidin-4-yl)amino)-3-nitrophenyl)sulfonyl)benzamide], the Ki was 0.187 nM. In the case of `CN1CCC(Nc2ccc(S(=O)(=O)NC(=O)c3ccc(N4CCN(CC5=C(c6ccc(Cl)cc6)CC(C)(C)CC5)CC4)cc3Oc3ccc(F)cc3Cl)cc2[N+](=O)[O-])CC1` [Example 61, 2-(2-chloro-4-fluorophenoxy)-4-(4-((2-(4-chlorophenyl)-4,4-dimethylcyclohex-1-en-1-yl)methyl)piperazin-1-yl)-N-((4-((1-methylpiperidin-4-yl)amino)-3-nitrophenyl)sulfonyl)benzamide], the Ki is reported as 0.22 nM. `CN1CCC(Nc2ccc(S(=O)(=O)NC(=O)c3ccc(N4CCN(CC5=C(c6ccc(Cl)cc6)CC(C)(C)C5)CC4)cc3Oc3ccccc3Cl)cc2[N+](=O)[O-])CC1` [Example 62, 2-(2-chlorophenoxy)-4-(4-((2-(4-chlorophenyl)-4,4-dimethylcyclopent-1-en-1-yl)methyl)piperazin-1-yl)-N-((4-((1-methylpiperidin-4-yl)amino)-3-nitrophenyl)sulfonyl)benzamide] showed a Ki of 0.227 nM. `Cc1c[nH]c2cccc(Oc3cc(N4CCN(CC5=C(c6ccc(Cl)cc6)CC(C)(C)CC5)CC4)ccc3C(=O)NS(=O)(=O)c3ccc(NCCCN4CCOCC4)c([N+](=O)[O-])c3)c12` [Example 63, 4-(4-((2-(4-chlorophenyl)-4,4-dimethylcyclohex-1-en-1-yl)methyl)piperazin-1-yl)-2-((3-methyl-1H-indol-4-yl)oxy)-N-((4-((3-morpholin-4-ylpropyl)amino)-3-nitrophenyl)sulfonyl)benzamide] showed a Ki of 0.438 nM. Work on `CN1CCC(Nc2ccc(S(=O)(=O)NC(=O)c3ccc(N4CCN(CC5=C(c6ccc(Cl)cc6)CC(C)(C)CC5)CC4)cc3Oc3cccc(C(F)(F)F)c3Cl)cc2[N+](=O)[O-])CC1` [Example 64, 4-(4-((2-(4-chlorophenyl)-4,4-dimethylcyclohex-1-en-1-yl)methyl)piperazin-1-yl)-2-(2-chloro-3-(trifluoromethyl)phenoxy)-N-((4-((1-methylpiperidin-4-yl)amino)-3-nitrophenyl)sulfonyl)benzamide] yielded a Ki of 0.458 nM. Work on `Cc1c[nH]c2cccc(Oc3cc(N4CCN(CC5=C(c6ccc(Cl)cc6)CC(C)(C)CC5)CC4)ccc3C(=O)NS(=O)(=O)c3ccc(NC4CCN(C)CC4)c([N+](=O)[O-])c3)c12` [Example 66, 4-(4-((2-(4-chlorophenyl)-4,4-dimethylcyclohex-1-en-1-yl)methyl)piperazin-1-yl)-2-((3-methyl-1H-indol-4-yl)oxy)-N-((4-((1-methylpiperidin-4-yl)amino)-3-nitrophenyl)sulfonyl)benzamide] yielded a Ki of 0.592 nM. For `CC1(C)CCC(CN2CCN(c3ccc(C(=O)NS(=O)(=O)c4ccc(NCCCN5CCOCC5)c([N+](=O)[O-])c4)c(Oc4cc(Cl)ccc4Cl)c3)CC2)=C(c2ccc(Cl)cc2)C1` [Example 67, 4-(4-((2-(4-chlorophenyl)-4,4-dimethylcyclohex-1-en-1-yl)methyl)piperazin-1-yl)-2-(2,5-dichlorophenoxy)-N-((4-((3-morpholin-4-ylpropyl)amino)-3-nitrophenyl)sulfonyl)benzamide], the Ki was 0.807 nM. Work on `Cn1ccc2c(Oc3cc(N4CCN(Cc5ccccc5-c5ccc(Cl)cc5)CC4)ccc3C(=O)NS(=O)(=O)c3ccc(NCCCN4CCOCC4)c([N+](=O)[O-])c3)cccc21` [Example 68, 4-(4-((4′-chloro-1,1′-biphenyl-2-yl)methyl)piperazin-1-yl)-2-((1-methyl-1H-indol-4-yl)oxy)-N-((4-((3-morpholin-4-ylpropyl)amino)-3-nitrophenyl)sulfonyl)benzamide] yielded a Ki of 5.93 nM.

From US8952157B2, “Apoptosis-inducing agents for the treatment of cancer and immune and autoimmune diseases” (AbbVie Inc., priority 2008, dated 2015)
